Laboratory results taken from patent US10095829B2, “Computer implemented methods of treating lung cancer” (WORLDWIDE INNOVATIVE NETWORK, priority 2009, dated 2018).

Columns and labels:
[1] = system: non-small cell lung carcinoma (NSCLC), cT4, N0, M1; experiment: Clinical course under treatment, patient of Example 1; type: in vivo, human; details: Example 1 patient, new subclavious metastasis
Description: The patient was a person. They suffered of a non-small cell lung carcinoma (NSCLC), cT4, N0, M1. […] For HKI 272, the patient has been included in a clinical trial.
Lapatinib, an anti-HER1 and -HER2 inhibitor, was justified, even if no mutation was detected in EGFR, because EGF overexpressed 15 folds in the patient and it was needed to continue HKI 272.

[2] = system: primary bronchial adenocarcinoma with bilateral pulmonary metastases and asymptomatic cerebral metastases; experiment: Clinical course under treatment, patient of Example 3; type: in vivo, human; details: Example 3 patient
Description: A patient was diagnosed in May 2007 for a primary bronchial adenocarcinoma with bilateral pulmonary metastases and asymptomatic cerebral metastases. A surgical treatment has been carried out in November 2008 and two therapeutic lines have been used, namely thirteen cycles of cisplatin-gemcitabin for the first line and Alimta for the second one.
However, based on this score table, avastin associated with a score of 384 has been selected.

[3] = system: bronchial adenocarcinoma T4 with bones and pleural metastases; details: Example 2 patient; for Clinical outcome: bronchial adenocarcinoma

| Molecule | Clinical outcome [2] | Clinical outcome [3] | also measured |
| --- | --- | --- | --- |
| CCOc1cc2ncc(C#N)c(Nc3ccc(OCc4ccccn4)c(Cl)c3)c2cc1NC(=O)/C=C/CN(C)C [HKI 272] |  |  | Duration of treatment until disease progression was observed [1]: 37 months |
| Nc1nc2[nH]cc(CCc3ccc(C(=O)N[C@@H](CCC(=O)O)C(=O)O)cc3)c2c(=O)[nH]1 [PEMETREXED] | only associated with a disease progression |  |  |
| C#Cc1cccc(Nc2ncnc3cc(OCCOC)c(OCCOC)cc23)c1 [Tarceva] |  | inefficient and led to a rapid progression |  |
| CCC1=C[C@@H]2CN(C1)Cc1c([nH]c3ccccc13)[C@@](C(=O)OC)(c1cc3c(cc1OC)N(C)[C@H]1[C@@](O)(C(=O)OC)[C@H](OC(C)=O)[C@]4(CC)C=CCN5CC[C@]31[C@@H]54)C2 [VINORELBINE] |  | the disease was stable, then progressed | Survival conferred ([3]; treatment since January 2010): three months survival |
| BEVACIZUMAB: VEGFA gene is regarded as major target gene for bevacizumab | major response has been observed after two treatment cycles |  |  |
